Reference: US6583127B1, “Use of etherlysophospholipids as antiinflammatory agents” (Inkeysa. SA, priority 1998, dated 2003)

Tests used:
[1] = system: bentonite-induced skin edema in mice; test: Bentonite-induced skin edema in mice; format: in vivo; conditions: for Area (area below the curve of difference between right and left pad diameter) / Inhibition of the inflammatory process: mice; for Inhibition of the inflammatory process: versus inflamed control
Text: Mice were individually identified with an ear code and were kept in groups of 6 per cage (Makrolon: 47.6×22.7×14.5 cm). Each cage was individually labelled with the n^o. of the study, type of treatment, doses used and route of administration, as well as the name of the director of the study, number and gender of contained animals, date of arrival and of the beginning of the experiment.
The animals had free access to mouse standard chow (UAR A04C; Usine d'Alimentation Rationelle, 91360-Villemoisson sur Orge, Francia; lot nos. 70520 and 70722). Drinking water access was ad libitum. The water, supplied by the Compañia de Aguas de Sabadell, S.A., is routinely analysed for the presence of possible contaminants. The temperature in the animal rooms was 22±3° C., with sporadic peaks of 26° C.; air humidity was 60±10%, with sporadic peaks of 80%. Daily light (between 7:00 h and 19:00 h) and dark phases were installed automatically.
Upon arrival, all animals were allowed to rest in the facilities for 8 days before use in the experiment. Table 2 indicates the six random groups of 10 mice each were set for experimentation.
The diameter of both hind pads of all mice was measured at day 0 and set as the basal value. Edema was then induced by injecting s.c. 13.3 mg/ml bentonite in 0.03 ml PBS into the right food pad. The corresponding mice were given daily the different compounds orally for 21 days. The inflamed control group was given 0.2 ml PBS only. The diameter of hind pads, as well as the body weight, was then measured every other day.
In each experimental group the average value, the standard deviation (SD) and the standard error was determined for the two parameters studied (hind pad diameter and body weight). The factor variance analysis (FVA) was used to compare the values obtained in the different groups. Where statistically significant differences were observed, the Duncan-Kramer test for a p<0.05 was applied.
The area below the curves corresponding to the diameters of the right and left pads was calculated and the evolution of the difference between them were plotted (FIGS. 7 and 8). The anti-inflammatory capacity of the different substances was evaluated as the extent of inhibition of the inflammatory process that was calculated with the formula [formula]
where C is the area below the inflammed control group and T the area below the different treatment groups.

[2] = system: PGE2 production in murine fibroblasts 3T3; test: PGE2 measurement in 3T3 cells (enzyme immunoassay); format: cell-based, Mouse
Procedure: Cell culture. Human promyelocytic HL-60 cells and promonocytic U937 cells were grown in RPMI-1640 culture medium supplemented with 10% (v/v) heat-inactivated fetal calf serum, 2 mM L-glutamine, 100 units/ml penicillin and 24 μg/ml gentamicin. Mouse 3T3 fibroblasts were grown in Dulbecco's modified Eagle's medium (DMEM) supplemented with 10% (v/v) heat-inactivated fetal calf serum, 2 mM L-glutamine, 100 units/ml penicillin and 24 μg/ml gentamicin. Cells were incubated at 37° C. in a humidified atmosphere at 5% CO2 and 95% air.
Prostaglandin E2 (PGE2) measurement. 3T3 cells (1.5×10^5 in 100 μl in complete DMEM culture medium) were incubated overnight at 37° C. (5% CO2) in 96-well microtitre plates (tissue-culture grade). Then, the distinct agents were added in 100 μl complete DMEM culture medium for 20 min at 37° C. After washing thoroughly the cells with PBS, cells were lysed and intracellular PGE2 was measured using an enzyme immunoassay kit (Amersham Pharmacia Biotech, Buckinghamshire, UK) following the manufacturer's instructions. Data obtained in duplicate measurements were converted into actual amounts of PGE2 using a calibration curve run in parallel with defined amounts of PGE2.

[3] = system: phospholipase A2 (PLA2); test: [3H]arachidonic acid release as assay for PLA2 activity; format: cell-based; conditions: FIG. 10
Procedure: Measurement of arachidonic acid release. Arachidonic acid release was measured as an assay for phospholipase A2 (PLA2) activity, because this enzyme activity constitutes the major pathway controlling arachidonic acid release. Cells (5×10^5/ml) were labeled overnight with 0.1 μCi of [^3H]arachidonic acid/ml in RPMI-1640 culture medium containing 10% fetal calf serum. Then cells were washed four times with culture medium, and cells were resuspended in […] culture medium in the absence of serum in the absence (control) or in the presence of distinct agents for the times indicated in the respective figures. After this period, cells were pelleted by centrifugation and supernatants were transferred to scintillation vials and counted for radioactivity. Results are shown as cpm of labelled arachidonic acid released to the extracellular medium.

[4] = system: CD11b; test: Cell surface expression of CD11b in human neutrophils (immunofluorescence flow cytometry); format: cell-based; conditions: Medium = 100
Text: Isolation and treatment of neutrophils.
Monoclonal antibodies. […] The antibodies are commercially available.
Immunofluorescence flow cytometry. […] Results were expressed as relative MFI (rMFI), such that
rMFI=(MFIagent×100)/MFImedium
Background fluorescence was substracted from all values.

[5] = system: PGE2 synthesis in human mucosal gastric biopsies; test: Ex vivo PGE2 synthesis in human mucosal gastric biopsies
Procedure: The ability of the gastric mucosa to generate prostaglandins estimates total cyclooxygenase (COX) activity (COX-1 plus any COX-2). To measure ex vivo prostaglandin E2 (PGE2) synthesis, normal gastric mucosal biopsies were immediately placed in Ependorff tubes containing phosphate-buffered saline (PBS). […] Each mucosal gastric biopsy was cut into different pieces (about 1 mg weight) that were subsequently weighed and incubated in the absence or in the presence of the distinct agents indicated in the corresponding Table for 20 min at 37° C. in 200 μl Hepes-glucose buffer. Then cells were mucosal gastric samples were pelleted by centrifugation, lysed and intracellular PGE2 was measured using an enzyme immunoassay kit (Amersham Pharmacia Biotech, Buckinghamshire, UK) following the manufacturer's instructions. Prostaglandin synthesis is expressed as picograms of PGE2 synthesised per mg of tissue incubation. Each experiment corresponded to the use of one biopsy, in order to avoid variability among different biopsies. Normal volunteers without a previous pharmacological treatment were selected for these assays. The normal gastroduodenal mucosa was visually assessed by endoscopy.
Human mucosal gastric biopsies were cut into about 1 mg pieces, incubated with the indicted agents (10 μM) for 20 min at 37° C. in Hepes-glucose buffer, and then the intracellular content of PGE2 was determined as described in the Methods section. Untreated control samples were run in parallel. Data are shown as mean Values+S.D. from three independent experiments.

[6] = 2.5 mg/kg orally daily for 21 days
[7] = 5 mg/kg orally daily for 21 days

With `CCCCCCCCCCCCCCCCCCOCC(COP(=O)([O-])OCC[N+](C)(C)C)OC` (stereo not drawn) [IEC01, Edelfosine] the “times more efficient in inhibiting inflammation than indomethacin, at the molecular level” value ([1]; 2.5 mg/kg versus indomethacin 2 mg/kg, taking molecular weights into account) was 2 times, the “Area (area below the curve of difference between right and left pad diameter)” value [1, 6] was 5.9 ± 0.45 A.U and the “Inhibition of the inflammatory process” value [1, 6] was 23.5%. The “Area (area below the curve of difference between right and left pad diameter)” value [1, 7] was 7.0 ± 1.34 A.U, the “Inhibition of the inflammatory process” value [1, 7] was 9.7% and the “pg PGE2 (intracellular)” value ([2]; 3T3 cells, 10 μM, 20 min at 37° C., Control 112 ± 21) was 148 ± 22 pg. For the same compound, the “effect on PGE2 production (in words)” value ([2]; 3T3 fibroblasts, ionomycin-induced PGE2) was “no significant inhibition”, the “PLA2 activity, as measured by [3H]arachidonic acid release” value [3] was “able to stimulate” and the “CD11b cell surface expression (rMFI)” value ([4]; 10 ng/ml, rMFI=(MFIagent×100)/MFImedium) was 97.5 ± 8.5. The “CD11b cell surface expression (rMFI)” value ([4]; 100 ng/ml) was 101 ± 3, the “CD11b cell surface expression (rMFI)” value ([4]; 500 ng/ml) was 103 ± 3 and the “CD11b cell surface expression (rMFI)” value ([4]; 1 μg/ml) was 105 ± 6. For the same compound, the “CD11b cell surface expression (rMFI)” value ([4]; 5 μg/ml) was 130 ± 15, the “pg PGE2/mg (weight)” value ([5]; human mucosal gastric biopsies, agents 10 μM, 20 min at 37° C., Control 115 ± 26, mean ± S.D., three experiments) was 131 ± 29 pg PGE2/mg and the “effect on mucosal PGE2 synthesis (in words)” value ([5]; normal mucosal gastric biopsies, ex vivo) was “did not inhibit”.
